In PubChem BioAssay (NCI):
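Cells were grown in 96-well plates and exposed to each compound for 48 hours at five concentrations; endpoints were interpolated linearly between bracketing concentrations, or set to the highest concentration if not reached. TGI: concentration producing complete growth inhibition.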

How the values were obtained:
Assay in all cases: growth of human tumour cells (NCI), 48 h
OVCAR-8 ovarian = test system: OVCAR-8 ovarian
DU-145 prostate = test system: DU-145 prostate
SF-268 CNS = test system: SF-268 CNS
IGROV1 ovarian = test system: IGROV1 ovarian
OVCAR-3 ovarian = test system: OVCAR-3 ovarian
MDA-N = test system: MDA-N
HL-60(TB) leukemia = test system: HL-60(TB) leukemia
PC-3 prostate = test system: PC-3 prostate
BT-549 breast = test system: BT-549 breast
U251 CNS = test system: U251 CNS
T-47D breast = test system: T-47D breast
SF-295 CNS = test system: SF-295 CNS
EKVX NSCLC = test system: EKVX NSCLC
HOP-92 NSCLC = test system: HOP-92 NSCLC

Row | Structure (SMILES) | TGI (OVCAR-8 ovarian) [µM] | TGI (DU-145 prostate) [µM] | TGI (SF-268 CNS) [µM] | TGI (IGROV1 ovarian) [µM] | TGI (OVCAR-3 ovarian) [µM] | TGI (MDA-N) [µM] | TGI (HL-60(TB) leukemia) [µM] | TGI (PC-3 prostate) [µM] | TGI (BT-549 breast) [µM] | TGI (U251 CNS) [µM] | TGI (T-47D breast) [µM] | TGI (SF-295 CNS) [µM] | TGI (EKVX NSCLC) [µM] | TGI (HOP-92 NSCLC) [µM]
1 | COC(=O)c1c(O)ccc2c1c1c(n2Cc2ccc(Cl)cc2Cl)C(=O)c2ccccc2C1 | > 100 | > 100 | > 100 | > 100 | > 100 | > 100 | > 100 | 73.3 | > 100 | > 100 | > 100 | – | – | –
2 | C[C@@H]1C[C@](O)([C@@H](C)Cl)C(=O)O[C@@H]2CCN3CC=C(COC(=O)[C@]1(C)O)[C@H]23 | > 100 | > 100 | > 100 | > 100 | > 100 | > 100 | > 100 | > 100 | > 100 | > 100 | > 100 | > 100 | > 100 | > 100
3 | COc1ccc(C(OCC2OC(n3cc(C)c(=O)[nH]c3=O)CC2n2cc(Cn3cc(Br)c(=O)[nH]c3=O)nn2)(c2ccccc2)c2ccccc2)cc1 (stereo not given) | > 100 | > 100 | > 100 | > 100 | > 100 | > 100 | 5.09 | > 100 | > 100 | > 100 | > 100 | > 100 | > 100 | > 100
4 | COc1ccc(/C=N/n2c(-c3ccccc3)n[nH]c2=O)cc1 | > 100 | > 100 | > 100 | – | > 100 | > 100 | – | > 100 | > 100 | > 100 | > 100 | > 100 | > 100 | –
5 | CCCNC(=S)/N=C/c1c(O)c2ccccc2[nH]c1=O | > 100 | > 100 | > 100 | > 100 | > 100 | > 100 | > 100 | > 100 | > 100 | > 100 | > 100 | > 100 | > 100 | > 100
6 | N#C/C(N)=C(\C#N)NC=NCc1ccccc1 | > 100 | > 100 | > 100 | > 100 | > 100 | > 100 | > 100 | > 100 | > 100 | > 100 | > 100 | > 100 | > 100 | –
7 | COc1ccc(-c2nc(SCC(=O)N/N=C/c3ccc(O)c(OC)c3)[nH]c2-c2ccc(OC)cc2)cc1 | > 100 | > 100 | > 100 | – | 48 | 52.3 | 32.4 | > 100 | 44.1 | 40.8 | > 100 | 46.5 | > 100 | 66.1
8 | CC(C)(C)C(=O)OC(N)/C=C/c1ccccc1 (stereo not given) | > 100 | – | – | > 100 | > 100 | > 100 | > 100 | > 100 | > 100 | > 100 | > 100 | > 100 | > 100 | > 100
9 | CCCCn1c(C)c2c(c1C)C(=O)N(CC(O)CN1CCc3ccccc3C1)C2=O (stereo not given) | > 100 | > 100 | > 100 | > 100 | > 100 | > 100 | > 100 | > 100 | > 100 | > 100 | > 100 | > 100 | > 100 | > 100
10 | CCCCCC(/C=C/C1CCC(=O)C1CC#C[Si](C)(C)C)OCc1ccccc1 (stereo not given) | 31.1 | > 87.5 | 29.4 | 28.7 | 39.1 | 42.6 | – | > 64.1 | 33.8 | 40.6 | 85.1 | 39.8 | 39.8 | 17.2
11 | C[C@@]12CCC3C1C=C1C(=O)c4cc(O)ccc4C(=O)[C@]1(O2)[C@@]3(C)C=O | 42.6 | 11.3 | 36.7 | 19.6 | 12 | 12.6 | 3.88 | 19.5 | 8.69 | 19 | 14 | 22 | 22.5 | 20.8
12 | COc1cccc2c1C(=O)c1c(O)c3c(c(O)c1C2=O)C[C@@](O)(C(=O)CO)C[C@@H]3OC1CC(N)C(OC)C(C)O1 (stereo not given in full) | 1.21 | > 100 | 1.97 | 16.4 | 10.6 | 36.2 | 0.388 | 1.64 | 1.47 | 0.441 | 1.73 | 1.98 | 9.35 | 0.631
13 | CC1(C)OC(=C(C#N)C#N)C(C#N)=C1/C=C/c1ccncc1 | 3.29 | 6.21 | 6.5 | 4.21 | 3.59 | 7.27 | – | 4.62 | 3.18 | 3.65 | 6.26 | 5.28 | 5.46 | 5.17
14 | CC[C@]1(Cc2ccc(OC)c(OC)c2)[C@@H]2C[C@@H](C3OCCO3)ON2O[C@H](OC2CCCC2(c2ccccc2)c2ccccc2)[C@@H]1OC(C)=O (stereo not given in full) | 46.4 | 83.9 | 44.1 | 50.1 | 25.4 | > 100 | – | 63.8 | 55.9 | > 100 | 50.3 | 39.1 | 44.6 | –
15 | CC(=O)Nc1ccc2cc(C)c(=O)[nH]c2n1 | > 100 | > 100 | > 100 | > 100 | – | > 100 | > 100 | > 100 | > 100 | > 100 | > 100 | > 100 | > 100 | > 100
16 | COc1ccc(C(=O)/C=C/c2ccncc2)cc1OC | 28.6 | 31.6 | 30.5 | 26.6 | 18.6 | 26.2 | 5.02 | 30.6 | 18.6 | 23.2 | 30.9 | 29.9 | 30.5 | 27.6
17 | O=C1C[C@H]2[C@@H](O1)[C@@H](O)CN1C(=O)c3ccccc3[C@H]21 | > 100 | > 100 | > 100 | > 100 | – | > 100 | – | > 100 | > 100 | > 100 | > 100 | > 100 | > 100 | –

Row | Structure (SMILES) | TGI (OVCAR-8 ovarian) [µM] | TGI (DU-145 prostate) [µM] | TGI (SF-268 CNS) [µM] | TGI (IGROV1 ovarian) [µM] | TGI (OVCAR-3 ovarian) [µM] | TGI (MDA-N) [µM] | TGI (HL-60(TB) leukemia) [µM] | TGI (PC-3 prostate) [µM] | TGI (BT-549 breast) [µM] | TGI (U251 CNS) [µM] | TGI (T-47D breast) [µM] | TGI (SF-295 CNS) [µM] | TGI (EKVX NSCLC) [µM] | TGI (HOP-92 NSCLC) [µM]
18 | Cc1ccc(-c2c3c(n(C4OC(CO)C(O)C(O)C4O)c(=S)c2C#N)CC(C)(C)CC3=O)cc1 (stereo not given) | > 100 | > 100 | > 100 | > 100 | > 100 | > 100 | > 100 | > 100 | > 100 | > 100 | > 100 | > 100 | – | > 100
19 | Cc1cn(CCCCCOC(=O)NC(CCCN=C(N)N)C(=O)O)c(=O)[nH]c1=O (stereo not given) | > 100 | > 100 | > 100 | > 100 | > 100 | 31.3 | > 100 | > 100 | > 100 | > 100 | > 100 | > 100 | > 100 | > 100
20 | N#CC1(C#N)C2CCCCC23OC(=N)C1(C#N)C(c1ccccc1)O3 (stereo not given) | 48.9 | 64.3 | 18.1 | 37.2 | 28.2 | 27.9 | – | 55.4 | 34.7 | 69.6 | 57.9 | > 100 | 60.6 | 33.6
21 | Cn1c(=O)c2c(no[n+]2[O-])c2ccccc21 | 28.3 | – | 59.2 | 31.4 | 48.4 | 87.2 | – | 71.8 | 34.2 | 34.7 | 68.3 | 61.1 | 46.1 | 52.2
22 | Oc1ccc(-c2nc(-c3ccc(F)cc3)c(-c3ccc4ccccc4n3)[nH]2)cc1 | 32 | 34.8 | 43.8 | 26.5 | 20.3 | 27.9 | > 100 | 22.6 | 36.6 | 24.4 | 25.1 | 24 | 40.7 | –
23 | O=C1NN=C2C=C(c3ccc(Cl)cc3)CC(c3cccc(Cl)c3)C12 (stereo not given) | > 100 | > 100 | > 100 | 59.1 | > 100 | 65.3 | 49.1 | > 100 | > 100 | 39.9 | > 100 | 38.4 | 64.7 | 50.9
24 | CCOC(=O)c1ccc(C(=O)/C(C#N)=C2\CCCN2C)[nH]1 | > 100 | > 100 | > 100 | > 100 | > 100 | > 100 | > 100 | > 100 | > 100 | > 100 | > 100 | > 100 | > 100 | –
25 | O=C(/C=C/C=C/c1ccccc1)c1ccc2c(c1)CCCC2 | > 100 | 92.3 | 42.6 | > 100 | > 100 | 62.8 | – | > 100 | 77.4 | > 100 | 93.9 | > 100 | > 100 | 89.9
26 | Cc1ccc(NC(=S)NNC(=O)c2cc(-c3ccccc3)nc3ccccc23)cc1 | 47.8 | 26.1 | 34.8 | 36.7 | 21.7 | 12.7 | – | 32.2 | 32.7 | 20.2 | 21.3 | 17.4 | – | 25.8
27 | Cn1c(N)c2c3c(sc2nc1=O)CCCC3 | > 75 | > 75 | > 75 | > 75 | > 75 | > 75 | > 75 | > 75 | > 75 | > 75 | > 75 | > 75 | > 75 | –
28 | O=P(O)(Cc1ccccc1)c1ccccc1-c1ccccc1 | > 100 | > 100 | > 100 | > 100 | – | > 100 | > 100 | > 100 | > 100 | > 100 | > 100 | > 100 | > 100 | –
29 | COc1ccc(CN(Cc2ccc(OC)cc2)C(=O)CC2(O)C=CCC2)cc1 (stereo not given) | > 100 | > 100 | – | > 100 | > 100 | > 100 | > 100 | > 100 | > 100 | > 100 | > 100 | > 100 | > 100 | > 100
30 | COC(=O)C1(OC(=O)Sc2ccccc2)CCN(C)CC1 | 52.7 | > 100 | 62 | 18.7 | > 45.3 | 49.4 | 24 | > 83.5 | 7.04 | 40.6 | > 100 | > 59.5 | > 84.6 | –
31 | CSc1ncnc2c1cnn2CCCCO | – | > 100 | > 100 | > 100 | > 100 | > 100 | > 100 | > 100 | > 100 | > 100 | > 100 | > 100 | > 100 | > 100
32 | O=C(NCCCN(CCCCN(CCCNC(=O)C(F)(F)F)CCCc1ccccc1)CCCc1ccccc1)C(F)(F)F | 3.77 | 3.99 | 3.3 | 3.52 | – | 3.04 | 23.9 | – | 7.34 | 3.56 | 3.84 | 3.3 | 4.23 | 4.63
33 | O=C1NC(=S)NNC12c1ccccc1-c1ccccc12 | > 10 | > 10 | > 10 | > 10 | – | > 10 | > 10 | – | > 10 | > 10 | > 10 | – | > 10 | > 10
34 | CCN(CC)C(=S)SS(=O)(=O)c1ccc(F)cc1 | > 100 | > 100 | > 100 | – | > 100 | > 100 | – | – | > 100 | 73.4 | > 100 | > 100 | > 100 | > 100
